Data set [1] relates to T1, PDE IV.
T1 construct: PDE IV IC50; other: Type IV PDE isolated from bovine tracheal smooth muscle; rolipram run in the
Description: Type IV PDE inhibition, hydrolysis of [3H]-cyclic AMP. In kind it is biochemical, bovine. From the text:
The PDE IV inhibitory compounds of the present invention may be examined for their PDE IV inhibitory effects via the techniques set forth in the following examples, wherein the ability of the compounds to inhibit PDE IV isolated from bovine tracheal smooth muscle is set forth.
The Type IV PDE is isolated from bovine tracheal smooth muscle using a procedure similar to that previously described by Silver, P. J. et al., Eur. J. Pharmacol. 150:85,1988.(1). Briefly, smooth muscle from bovine trachea is minced and homogenized using a polytron in 10 volumes of an extraction buffer containing 10 mM Tris-acetate (pH 7.5), 2 mM magnesium chloride, 1 mM dithiothreitol and 2,000 units/ml of aprotinin. This and all subsequent procedures are performed at 0-4° C. The homogenate is sonicated and then centrifuged at 48,000×g for 30 minutes. The resulting supernatant is applied to a DEAE Trisacryl M column previously equilibrated with sodium acetate and dithiothreitol. After applications of the sample, the column is washed with sodium acetate/dithiothreitol, after whlich the different forms of PDE are eluted from the column using a linear Tris-HCl/NaCl gradient. Fractions containing Type IV PDE are collected, dialyzed and concentrated to 14% of the original volume. The concentrated fractions are diluted to 50% with ethylene glycol and stored at −20° C.
Enzyme activity is assessed by measuring the hydrolysis of [^3H]-cyclic AMP, as described by Thompson, W. J. et al., Adv. Cyclic Nucleotide Res. 10:69, 1979. The cyclic AMP concentration used in this assay is 0.2 μM, which approximates the Km value. Protein concentration is adjusted to ensure that no more than 15% of the available substrate is hydrolyzed during the incubation period.
(§1) All test compounds are dissolved in dimethyl sulfoxide (final concentration of 2.5%). This concentration of dimethyl sulfoxide inhibits enzyme activity by approximately 10%.

For data set [2], the target named is T2, PDE III (Homo sapiens, UniProt Q14432).
T2 construct: Fractions containing PDE III activity are pooled and dialyzed overnight; from tissue; host or cells: human platelets
Briefly: Type III PDE inhibition, hydrolysis of [3H]-cyclic AMP. In kind it is biochemical. As to conditions: Type III PDE isolated from human platelets; 0.2 μM cyclic AMP. How it is done: The Type III PDE is isolated from human platelets using a procedure similar to that previously described by Washer, R. E. et al., Biochem. Pharmacol., 35:787, 1986. Briefly, 1-2 units of platelets are suspended in an equal volume of buffer (20 mM Tris-HCl, pH 7.5, containing 2 mM magnesium acetate, 1 mM dithiothreitol, and 5 mM Na2EDTA). The proteinase inhibitor phenylmethyl-sulfonyl fluoride (PMSF) is also included in this buffer at a final concentration of 200 μM. The suspension is homogenized using a polytron and the homogenate centrifuged at 100,000×g for 60 minutes. This and all subsequent procedures are performed at 0-4° C. The supernatant is then filtered through four layers of gauze and applied to a DEAE-Trisacryl M column, previously equilibrated with buffer B (20 mM Tris-HCl, pH 7.5, containing 1 mM magnesium acetate, 1 mM dithiothreitol and 200 μM PMSF). After application of the sample, the column is washed with several bed volumes of buffer B, after which the different forms of PDE are eluted from the column using two successive linear NaCl gradients (0.05-0.15 M, 300 ml total; 0.15-0.40 M, 200 ml total). Five ml fractions are collected and assayed for cyclic AMP and cyclic GMP PDE activity. Fractions containing PDE III activity are pooled and dialyzed overnight against 4 L of buffer B. The dialyzed PDE III is then concentrated to 10% of the original volume, diluted to 50% with ethylene glycol monoethyl ether and stored at −20° C. PDE III can typically be retained for up to four weeks with little or no loss of activity.
Enzyme activity is assessed by measuring the hydrolysis of [^3H]-cyclic AMP, as described by Thompson, W. J. et al., Adv. Cyclic Nucleotide Res. 10:69, 1979. The cyclic AMP concentration used in this assay is 0.2 μM, which approximates to the Km value. Protein concentration is adjusted to ensure that no more than 15% of the available substrate is hydrolyzed during the incubation period.
as §1

The test system of data set [3] is PDE IV. As to conditions: cited from earlier work.
Where [4] appears, read: Type IV PDE isolated from bovine tracheal smooth muscle, 0.2 μM cyclic AMP, read-out: PDE IV IC50.

Read-outs that look alike come from different tables or passages of the source.

T2 sequence (Q14432 whole entry): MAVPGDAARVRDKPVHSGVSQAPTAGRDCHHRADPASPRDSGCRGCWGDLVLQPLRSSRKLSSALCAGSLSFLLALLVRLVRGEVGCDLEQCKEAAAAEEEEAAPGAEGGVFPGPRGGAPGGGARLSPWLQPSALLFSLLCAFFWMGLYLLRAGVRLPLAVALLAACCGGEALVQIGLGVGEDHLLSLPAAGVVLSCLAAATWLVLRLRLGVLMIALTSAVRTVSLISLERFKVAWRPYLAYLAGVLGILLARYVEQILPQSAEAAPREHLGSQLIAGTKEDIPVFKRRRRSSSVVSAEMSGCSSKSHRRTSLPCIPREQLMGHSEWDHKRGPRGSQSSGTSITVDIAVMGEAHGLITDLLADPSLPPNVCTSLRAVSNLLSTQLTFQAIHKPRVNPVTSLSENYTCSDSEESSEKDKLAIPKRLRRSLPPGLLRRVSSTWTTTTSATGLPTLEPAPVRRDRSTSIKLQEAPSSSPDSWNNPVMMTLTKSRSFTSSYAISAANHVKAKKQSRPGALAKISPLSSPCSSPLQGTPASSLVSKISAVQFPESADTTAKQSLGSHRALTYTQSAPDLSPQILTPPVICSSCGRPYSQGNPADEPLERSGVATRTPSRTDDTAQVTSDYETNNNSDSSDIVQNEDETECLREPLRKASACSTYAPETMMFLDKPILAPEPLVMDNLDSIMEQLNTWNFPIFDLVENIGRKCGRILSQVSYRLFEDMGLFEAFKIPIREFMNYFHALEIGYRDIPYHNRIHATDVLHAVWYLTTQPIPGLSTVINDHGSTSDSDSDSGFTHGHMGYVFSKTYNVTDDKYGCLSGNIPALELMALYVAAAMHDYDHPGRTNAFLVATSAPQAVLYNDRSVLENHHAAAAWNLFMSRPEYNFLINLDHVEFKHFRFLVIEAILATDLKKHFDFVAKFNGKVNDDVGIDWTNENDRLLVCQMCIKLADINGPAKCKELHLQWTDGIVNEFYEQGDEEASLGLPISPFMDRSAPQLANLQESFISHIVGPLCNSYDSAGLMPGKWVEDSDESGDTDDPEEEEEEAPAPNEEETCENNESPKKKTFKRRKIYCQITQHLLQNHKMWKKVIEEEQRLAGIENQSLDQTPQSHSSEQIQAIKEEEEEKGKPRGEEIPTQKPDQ

In turn, `CC(=O)CCc1cc(Cl)cc2nc(-c3ccccc3Cl)oc12` [Example 9, 4-(5-Chloro-2-(2-chlorophenyl)benzoxazol-7-yl)butan-2-one] registered a melting point of 109 to 110 °C. The IC50 in data set [1] (setting [4]) was determined as 0.6 µM. The IC50 in data set [2] is greater than 300 µM.

`COc1ccc(Cc2nc3cc(Cl)cc(CC=O)c3o2)cc1OC1CCCC1` [Example 25, 2-(3-Cyclopentyloxy-4-methoxybenzyl)-5-chlorobenzoxazole-7-ethanal] displayed a melting point of 66 to 68 °C. For the same compound, the IC50 in data set [1] (setting [4]) worked out at 0.65 µM. The IC50 in data set [2] is 118 µM.

In turn, `COc1ccc(Cc2nc3cc(Cl)cc(CC=NO)c3o2)cc1OC1CCCC1` [Example 26, 2-(3-Cyclopentyloxy-4-methoxybenzyl)-5-chlorobenzoxazole-7-ethanal Oxime] came in with a melting point of 149 to 151 °C. Further, the IC50 in data set [1] (setting [4]) was determined as 0.37 µM. The IC50 in data set [2] is 11.4 µM.

As for `OCCCc1cc(Cl)cc2nc(Cc3ccccc3)oc12` [Example 37, 2-Benzyl-5-chloro-7-(3-hydroxy-1-propyl)Benzoxazole], the IC50 amounted to 39.1 µM in data set [1] (setting [4]) and 77 µM in data set [2].

Take `C=CCc1cc(Cl)cc2nc(Cc3ccccc3Cl)oc12` [Example 38, 2-(2-Chlorobenzyl)-5-chloro-7-allylbenzoxazole]: the IC50 was found to be 5.4 µM in data set [1] (setting [4]) and 107 µM in data set [2].

`COCCCc1cc(Cl)cc2nc(Cc3ccccc3Cl)oc12` [Example 39, 2-(2-Chlorobenzyl)-5-chloro-7-(3-methoxy-1-propyl)Benzoxazole]: the figures for the IC50 in data set [1] (setting [4]) and in data set [2] were 15.2 µM and 53.9 µM, respectively.

For `CCCc1cc(Cl)cc2nc(Cc3ccc(OC)c(OC4CCCC4)c3)oc12` [Example 40, 2-(3-Cyclopentyloxy-4-methoxybenzyl)-5-chloro-7-propylbenzoxazole], the figures for the IC50 in data set [1] (setting [4]) and in data set [2] were 0.92 µM and greater than 300 µM, respectively.

For the compound `OCCCc1cccc2nc(Cc3ccccc3Cl)oc12` [Example 41, 2-(2-Chlorobenzyl)-7-(3-hydroxy-1-propyl)Benzoxazole], the IC50 in data set [1] (setting [4]) was 69.3 µM; in data set [2], 100 µM.

Regarding `OCCCc1cc(Cl)cc2nc(Cc3cccc(Cl)c3)oc12` [Example 42, 3-[5-Chloro-2-(3-chlorobenzyl)benzoxazol-7-yl]propan-1-ol], the IC50 was determined as 16 µM in data set [1] (setting [4]) and 48.6 µM in data set [2].

Consider `COc1ccc(CCc2nc3cc(Cl)ccc3o2)cc1OC` [Example 43, 5-Chloro-2-[2-(3,4-dimethoxyphenyl)ethyl]Benzoxazole], for which the results for the IC50 in data set [1] (setting [4]) and in data set [2] were 16.3 µM and greater than 300 µM, respectively.

As for `COc1ccc(-c2nc3cc(Cl)ccc3o2)cc1OC` [Example 44, 5-Chloro-2-(3,4-dimethoxyphenyl)Benzoxazole], the IC50 is 19.3 µM in data set [1] (setting [4]) and greater than 300 µM in data set [2].

On to `CC(C)(C)c1cc(Cc2nc3ccccc3o2)cc(C(C)(C)C)c1O` [Example 45, 2-[4-Hydroxy-3,5-di-t-butyl-benzyl]Benzoxazole], for which the IC50 was found to be 19.5 µM in data set [1] (setting [4]) and 72.4 µM in data set [2].

Take `COC(=O)c1cccc2oc(Cc3cc(C(C)(C)C)c(O)c(C(C)(C)C)c3)nc12` [Example 46, 2-[4-Hydroxy-3,5-di-t-butyl-benzyl]-4-carbomethoxybenzoxazole]: the IC50 in data set [1] (setting [4]) worked out at 21.5 µM; in data set [2], 702 µM.

For the compound `CC(C)(C)c1cc(CCc2nc3ccccc3o2)cc(C(C)(C)C)c1O` [Example 47, 2-[2-(4-Hydroxy-3,5-di-t-butyl-phenyl)]Ethylbenzoxazole], the IC50 in data set [1] (setting [4]) was 91.5 µM; in data set [2], greater than 300 µM.

In the case of `NC(=O)CCc1cc(Cl)cc2nc(Cc3ccccc3Cl)oc12` [Example 55(a), 5-Chloro-2-(2-chlorobenzyl)-benzoxazole-7-propanamide], the melting point lay within 181 to 183 °C.

As for `CC(=O)Oc1c(C(C)(C)C)cc(CCc2nc3cc(Cl)cc(CCc4ccccn4)c3o2)cc1C(C)(C)C` [Example 58(b), 2-[2-(4-acetoxy-3,5-di-t-butyl-phenyl)ethyl]-5-chloro-7-[2-(2-pyridyl)ethyl]-benzoxazole], the melting point is 134 to 135 °C.

Compound `Clc1cc(C#Cc2nccs2)c2oc(Cc3ccccc3Cl)nc2c1` [Example 59(a), 5-chloro-2-(2-chlorobenzyl)-7-[2-(2-thiazolyl)ethynyl]-benzoxazole] gave a melting point of 149 to 151 °C.

The compound `OCCCCCc1cc(Cl)cc2nc(Cc3ccccc3Cl)oc12` [Example 60(b), 5-chloro-2-(2-chlorobenzyl)-7-(5-hydroxypentyl)-benzoxazole] came in with a melting point of 72 to 79 °C.

As to `COc1ccc(Cc2nc3cccc(CCCO)c3o2)cc1OC` [Example 61, 2-(3,4-dimethoxybenzyl)-7-(3-hydroxy-propyl)-benzoxazole], the melting point was 95 to 97 °C.

In the case of `COc1ccc(C2CNC(=O)C2)cc1OC1CCCC1` (stereo not drawn) [Rolipram, reference compound], the IC50 is 2.8 µM in data set [1] (read-out: concentration which yields 50% inhibition of PDE IV (IC50), value of the description, rolipram run in the same assay) and 3.5 µM in data set [3] (historically considered value, read-out: PDE IV IC50, historical value).

With `Cn1c(=O)c2[nH]cnc2n(C)c1=O` [theophylline], in data set [3] (read-out: concentration giving 50% inhibition of PDE IV, stated in the description without a test), the IC50 is roughly 350 µM.

Usually melting point stands for the temperature, or range, at which the solid turns liquid.
